Laboratory results as given in ChEMBL document CHEMBL1201862, “PubChem BioAssay data set” (2004).
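A five-concentration, 48-hour dose response in 96-well plates underlies each endpoint, interpolated linearly between surrounding concentrations. At the GI50, growth is halved.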 Active and inactive are the calls of the source. Rule as the data show it: active = GI50 up to about 1.1 µM and inactive = higher.

Assays:
Test in all cases: DTP human tumour cell line panel, 48 h
SNB-19 = system: SNB-19
HCC 2998 = system: HCC 2998
SN12C = system: SN12C
EKVX = system: EKVX
HCT-15 = system: HCT-15
HCT-116 = system: HCT-116
NCI-H23 = system: NCI-H23
A549 = system: A549
UACC-62 = system: UACC-62
OVCAR-3 = system: OVCAR-3
MOLT-4 = system: MOLT-4
UACC-257 = system: UACC-257
U-251 = system: U-251
UO-31 = system: UO-31
NCI-H226 = system: NCI-H226
SF-268 = system: SF-268
SK-MEL-2 = system: SK-MEL-2
KM12 = system: KM12

Measured: GI50

COc1ccc2c3c(c(C(=O)c4ccccc4)oc13)CCC2
> 100 µM: HCT-15
inactive: SNB-19 > 100 µM | HCC 2998 > 100 µM | SN12C > 100 µM | EKVX > 100 µM | HCT-116 > 100 µM | NCI-H23 20.8 µM | A549 > 100 µM | UACC-62 > 100 µM | OVCAR-3 > 100 µM | MOLT-4 > 100 µM | UACC-257 > 100 µM | U-251 > 100 µM

C/C(CC(=O)N(C(C)C)C(C)C)=N\NC(=O)c1ccncc1
inactive: SNB-19 > 100 µM | HCC 2998 > 100 µM | SN12C > 100 µM | EKVX > 100 µM | UO-31 > 100 µM | NCI-H226 > 100 µM | SF-268 > 100 µM | HCT-116 > 100 µM | NCI-H23 > 100 µM | A549 > 100 µM | UACC-62 > 100 µM | OVCAR-3 > 100 µM | MOLT-4 > 100 µM | UACC-257 > 100 µM | U-251 > 100 µM
> 100 µM: HCT-15

COc1c(C)cc2c(c1O)C1NC(C2)[C@H](O)N2C3COC(=O)[C@@]4(CS[C@@H](c5c(OC(C)=O)c(C)c6c(c53)OCO6)C12)NCCC1=C4NC2C=CC=CC12 (some centres not stated)
active: SNB-19 < 0.01 µM | HCC 2998 < 0.01 µM | SN12C < 0.01 µM | SK-MEL-2 < 0.01 µM | EKVX < 0.01 µM | UO-31 0.0148 µM | NCI-H226 < 0.01 µM | SF-268 < 0.01 µM | HCT-116 < 0.01 µM | NCI-H23 < 0.01 µM | A549 < 0.01 µM | UACC-62 < 0.01 µM | OVCAR-3 < 0.01 µM | MOLT-4 < 0.01 µM | U-251 < 0.01 µM
0.0104 µM: HCT-15

O=C1COc2cc(NC(=S)Nc3ccccc3)ccc2N1
inactive: KM12 > 100 µM | SNB-19 > 100 µM | HCC 2998 > 100 µM | SN12C > 100 µM | SK-MEL-2 > 100 µM | EKVX > 100 µM | UO-31 > 100 µM | NCI-H226 > 100 µM | SF-268 > 100 µM | HCT-116 > 100 µM | NCI-H23 > 100 µM | A549 > 100 µM | UACC-62 > 100 µM | OVCAR-3 > 100 µM | MOLT-4 > 100 µM | UACC-257 > 100 µM | U-251 > 100 µM
> 100 µM: HCT-15

Cc1ccc(S(=O)(=O)N2CCC2c2ccccc2)cc1 (configuration not stated)
inactive: KM12 82 µM | SNB-19 68.7 µM | HCC 2998 > 100 µM | SN12C > 100 µM | SK-MEL-2 > 100 µM | EKVX 64 µM | UO-31 23.1 µM | NCI-H226 28.6 µM | SF-268 82.2 µM | HCT-116 52.8 µM | NCI-H23 76.4 µM | A549 67.5 µM | UACC-62 76.7 µM | OVCAR-3 81.5 µM | MOLT-4 37.8 µM | UACC-257 47.3 µM | U-251 > 100 µM
> 100 µM: HCT-15

N/C(=N\O)N/N=C/c1ccc(C(F)(F)F)cc1
inactive: KM12 13.1 µM | SN12C 24.7 µM | SK-MEL-2 18.2 µM | EKVX 4.23 µM | SF-268 6.61 µM | HCT-116 32.9 µM | NCI-H23 15 µM | A549 5.15 µM | UACC-62 4.66 µM | OVCAR-3 13.5 µM | UACC-257 32.2 µM | U-251 16.8 µM

COc1ccc2c3c([nH]c2c1[N+](=O)[O-])C(C)N(Cc1ccccc1)CC3 (configuration not stated)
3.61 µM: HCT-15
inactive: KM12 3.59 µM | SNB-19 9.1 µM | HCC 2998 11.5 µM | SN12C 5.81 µM | SK-MEL-2 3.52 µM | EKVX 40.3 µM | UO-31 13.8 µM | NCI-H226 4.49 µM | SF-268 2.02 µM | HCT-116 3.08 µM | NCI-H23 7.94 µM | A549 5.05 µM | UACC-62 3.1 µM | OVCAR-3 3.52 µM | MOLT-4 3.2 µM | UACC-257 2.39 µM | U-251 2.67 µM

COc1cc2ccnc(C#N)c2cc1OCc1ccccc1
> 100 µM: HCT-15
inactive: KM12 > 100 µM | SNB-19 84.1 µM | HCC 2998 > 100 µM | SN12C > 100 µM | SK-MEL-2 64.1 µM | EKVX > 100 µM | UO-31 > 100 µM | SF-268 39.2 µM | HCT-116 > 100 µM | NCI-H23 > 100 µM | A549 > 100 µM | OVCAR-3 > 100 µM | MOLT-4 > 100 µM | UACC-257 > 100 µM | U-251 48 µM

Nc1nc(SCCNC(=O)CCc2ccc(O)cc2)nc2c1ncn2C1OC(CO)C(O)C1O (configuration not stated)
> 203 µM: HCT-15
inactive: KM12 > 203 µM | SNB-19 > 203 µM | HCC 2998 > 203 µM | SN12C > 203 µM | SK-MEL-2 > 203 µM | UO-31 > 203 µM | NCI-H226 > 203 µM | SF-268 > 203 µM | HCT-116 > 203 µM | NCI-H23 > 203 µM | A549 > 203 µM | UACC-62 > 203 µM | OVCAR-3 > 203 µM | MOLT-4 > 203 µM | UACC-257 > 203 µM | U-251 > 203 µM

COC1OC(CO)C(O)C(O)C1Br (configuration not stated)
inactive: KM12 > 100 µM | SNB-19 > 100 µM | HCC 2998 > 100 µM | SN12C > 100 µM | SF-268 > 100 µM | HCT-116 > 100 µM | NCI-H23 > 100 µM | A549 > 100 µM | UACC-62 > 100 µM | OVCAR-3 > 100 µM | MOLT-4 > 100 µM | UACC-257 > 100 µM | U-251 > 100 µM
> 100 µM: HCT-15

Cc1nc2ccccc2c(=O)n1NC(=O)c1ccc(N)cc1
inactive: KM12 > 100 µM | SNB-19 > 100 µM | HCC 2998 > 100 µM | SN12C > 100 µM | EKVX > 100 µM | UO-31 > 100 µM | NCI-H226 > 100 µM | SF-268 > 100 µM | HCT-116 > 100 µM | NCI-H23 > 100 µM | A549 > 100 µM | UACC-62 > 100 µM | OVCAR-3 > 100 µM | MOLT-4 > 100 µM | UACC-257 > 100 µM | U-251 > 100 µM

Cn1c(C2CC(C)(C)c3c2c2ccccc2n3C)cc2ccccc21 (configuration not stated)
inactive: KM12 > 304 µM | SNB-19 > 304 µM | HCC 2998 > 304 µM | SN12C > 304 µM | SK-MEL-2 > 304 µM | EKVX > 304 µM | NCI-H226 180 µM | SF-268 > 304 µM | HCT-116 30.1 µM | NCI-H23 > 304 µM | A549 > 304 µM | UACC-62 > 304 µM | OVCAR-3 64.6 µM | MOLT-4 > 304 µM | UACC-257 265 µM | U-251 > 304 µM
> 304 µM: HCT-15

CC/C=C1\N=C(c2ccc(Cl)cc2)OC1=O
inactive: KM12 > 100 µM | SNB-19 > 100 µM | HCC 2998 > 100 µM | SN12C > 100 µM | SK-MEL-2 > 100 µM | EKVX > 100 µM | UO-31 > 100 µM | NCI-H226 > 100 µM | SF-268 > 100 µM | NCI-H23 > 100 µM | A549 > 100 µM | UACC-62 > 100 µM | OVCAR-3 > 100 µM | MOLT-4 > 100 µM | UACC-257 > 100 µM
> 100 µM: HCT-15

Cc1ccc(C)c2c1CCc1cc3ccccc3nc1-2
> 100 µM: HCT-15
inactive: KM12 > 100 µM | SNB-19 > 100 µM | HCC 2998 > 100 µM | SN12C > 100 µM | SK-MEL-2 > 100 µM | EKVX > 100 µM | UO-31 > 100 µM | SF-268 > 100 µM | HCT-116 > 100 µM | NCI-H23 > 100 µM | A549 > 100 µM | UACC-62 > 100 µM | OVCAR-3 > 100 µM | MOLT-4 > 100 µM | UACC-257 > 100 µM | U-251 > 100 µM

NC(=O)CCC(NC(=O)Cc1ccccc1)C(=O)O.NC(CCC(=O)NC(=O)Cc1ccccc1)C(=O)O (configuration not stated)
inactive: KM12 > 8130 µM | SNB-19 > 8130 µM | HCC 2998 > 8130 µM | SN12C > 8130 µM | SK-MEL-2 > 8130 µM | EKVX > 8130 µM | UO-31 > 8130 µM | SF-268 > 8130 µM | HCT-116 > 8130 µM | NCI-H23 > 8130 µM | A549 > 8130 µM | UACC-62 > 8130 µM | OVCAR-3 > 8130 µM | MOLT-4 > 8130 µM | U-251 > 8130 µM

Cc1ccccc1C(=O)N1CCN(C(=O)c2ccccc2C)CC1
inactive: KM12 > 100 µM | SNB-19 > 100 µM | HCC 2998 > 100 µM | SN12C > 100 µM | EKVX > 100 µM | UO-31 > 100 µM | SF-268 > 100 µM | HCT-116 > 100 µM | NCI-H23 > 100 µM | A549 > 100 µM | UACC-62 > 100 µM | OVCAR-3 > 100 µM | MOLT-4 > 100 µM | UACC-257 > 100 µM | U-251 > 100 µM
> 100 µM: HCT-15

O=Cc1cn(S(=O)(=O)c2ccccc2)c2ccccc12
35.2 µM: HCT-15
inactive: KM12 86.5 µM | SNB-19 54.2 µM | HCC 2998 > 100 µM | SN12C 42.4 µM | EKVX > 100 µM | UO-31 18.7 µM | NCI-H226 70.3 µM | SF-268 25.5 µM | HCT-116 20 µM | NCI-H23 26.4 µM | A549 > 100 µM | UACC-62 26.9 µM | OVCAR-3 41 µM | MOLT-4 16.3 µM | UACC-257 29.6 µM | U-251 27.6 µM
